The series in a line: Side effects (stomach discomfort, nausea) in individuals given 5-ALA. Format: in vivo, human. The protocol: A total of eight individuals including seven healthy volunteers in whom no particular abnormality was found by health examination and the like and one volunteer with a malignant tumor, who was given a diagnosis of cancer by a doctor, were studied. The average body weight of the volunteers was 50 kg. The volunteers were instructed to ingest one capsule encapsulating 100 mg of 5-ALA before sleep and collect the first urine at the time of wake-up. Also, they were instructed to ingest, on another day, three capsules, each encapsulating 100 mg of 5-ALA, before sleep and collect the first urine at the time of wake-up.
From the above results, it was shown that administration at a dose of 300 mg can distinguish between not only the presence and absence of a tumor, but also a malignant tumor and a benign tumor. Also, it was shown that a malignant tumor can be detected by administering 100 mg of 5-ALA.
A total of 10 individuals including five healthy volunteers in whom no particular abnormality was found by health examination and the like and five volunteers with a malignant tumor, who were given a diagnosis of cancer by a doctor, ingested 1 g of 5-ALA. […]

Turning to `NCC(=O)CCC(=O)O` [5-ALA, 5-aminolevulinic acid], the “stomach discomfort and nausea” value is, setting by setting: (100 mg and 300 mg 5-ALA oral, eight individuals) “neither stomach discomfort nor nausea was observed”; (1 g 5-ALA ingested, 10 individuals) “some of the volunteers developed stomach discomfort and nausea”.

These data come from patent US9488664B2, “Diagnostic agent for tumor” (SBI Pharmaceuticals Co., Ltd., priority 2012, dated 2016).
